PubChem BioAssay AID2060361 (Molecular Pharmacology Branch, DTP, NCI, 2025)
Where “and” joins values, the source holds several entries; their conditions need not be identical. Equal values may be shown once.

Tested on: 463943-066-T-J2-PDC tumor spheroids with HUVEC/MSC, viability
Test: Anticancer human tumor 463943-066-T-J2-PDC patient-derived colon adenocarcinoma cell line growth inhibition [TAK]
Conditions: for viability, T/C: stronger effect = lower value
Excerpt: Combinatorial screen of targeted agents with TAK-243 and ipatasertib in multi-cell type tumor spheroids
A high-throughput screen of multi-cell type tumor spheroids was designed to identify active combinations of targeted small molecules and TAK-243 or ipatasertib. Complex spheroids include a stromal component modeled by human endothelial cells (HUVEC) and fibroblasts modeled by human mesenchymal stem cells (MSCs). The concentration ranges selected for each drug and investigational agent were based upon clinically achievable concentrations if the clinical Cmax of the agent was known.
Compounds. The drugs and investigational agents: TAK-243 (785004), ipatasertib (767898), everolimus (733504), selumetinib (741078), bortezomib (756655), trametinib (758246), ixazomib (758254), vemurafenib (761431), dabrafenib (764134), sapanisertib (764658), alpelisib (765974), and copanlisib (816437), were obtained from the National Cancer Institute (NCI) Developmental Therapeutics Program Chemical Repository. The FDA-approved anticancer drug set is available from the NCI Developmental Therapeutics Program. […] The stock solutions were prepared in dimethyl sulfoxide (DMSO, Sigma-Aldrich, St. Louis, MO, cat. D2650) at 800-fold the tested concentration and stored at -70 degrees C prior to their use. All drugs and investigational agents were tested over a range starting from a high concentration at or near the clinical Cmax and decreasing in half-log increments. If the clinical Cmax for an agent had not been determined, the highest concentration tested was 10 microM.
NCI60 Cell Culture. NCI60 cell lines were obtained from the NCI Developmental Therapeutics Program Tumor Repository. For each lot of cells, the Repository performed Applied Biosystems AmpFLSTR Identifiler testing with PCR amplification to confirm consistency with the published Identifier STR profile for each cell line. Cells were kept in continuous culture for no more than 20 passages. The optimal seeding densities for each of the cell lines at each time point assessed were determined prior to performing the concentration response studies. Briefly, the NCI60 human tumor lines were grown as monolayers in RPMI 1640 medium supplemented with 10% FBS and 2 mmol/L L-glutamine.
An additional 2 lines were from the NCI60 cell line panel including melanomas, MALME-3M and SK-MEL-2. Pooled donor human umbilical vein endothelial cells (HUVEC, Lonza, cat. CC-2519) and human mesenchymal stem cells (hMSC, Lonza, cat. PT-2501) were purchased from Lonza (Walkersville, MD).
PDMR cell lines were grown in complete medium (DC medium): Dulbecco's modified Eagle's medium (DMEM)/F12 supplemented with 5% fetal bovine serum (FBS), 2 mM L-glutamine, 100 U/mL penicillin and 100 µg/ml streptomycin, 0.4 µg/ml hydrocortisone, 10 ng/ml epidermal growth factor (EGF) recombinant human protein, 24 µg/mL adenine, and 0.1 mg/mL primocin. During culture from frozen stock vials, PDMR cells were cultured in the same medium containing 10 µM Y-27632 (see Table 3). The PDCs were cultured in complete DMEM/F12 media without 10 microM Y-27632 dihydrochloride for at least two passages prior to the screen. The pooled donor HUVEC and hMSC were cultured in endothelial cell growth medium 2 (PromoCell, Heidelberg, Germany, cat. C-22011) and mesenchymal stem cell growth medium 2 (PromoCell, cat. C-28009), respectively. For all experiments, HUVEC and hMSC were used at passages </=5.
For the pre-screen, cell seeding densities were determined from a titration spanning the range from 5,000 to 313 cells per well. The mct-spheroids including 60% malignant cells, 25% HUVEC and 15% MSC dispensed as a mixture into U-bottom Ultra-Low Attachment 384-well plates (Corning, NY)
High-throughput Drug Combination Screening.
Prior to their inoculation into 384-well plates, malignant cells, HUVEC, and hMSC were removed from T flasks using TrypLE express (Thermo Fisher Scientific, cat. 12605036) and harvested by centrifugation for 5 min at 233 x g. […]
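Note: spheroids exposed to drugs for seven days.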
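Throughout, for viability, T/C: 100% = DMSO vehicle control wells.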

In the case of `CC(=O)Nc1cccc(-n2c(=O)n(C3CC3)c(=O)c3c(Nc4ccc(I)cc4F)n(C)c(=O)c(C)c32)c1`, the viability, T/C (compound 94.9 pM) is reported as 104% and 102%, the viability, T/C (compound 0.0003 µM) is reported as 93.3% and 98.1% and the viability, T/C (compound 0.000949 µM) is reported as 89.2% and 86.9%. The viability, T/C (compound 0.003 µM) was 86.5% and 68.9%, the viability, T/C (compound 0.00949 µM) was 81.9% and 67.4% and the viability, T/C (compound 0.03 µM) was 67.2% and 59.4%. The IC50 (curve of compound) was > 30 nM.
In the case of `CC(C)(C)c1nc(-c2cccc(NS(=O)(=O)c3c(F)cccc3F)c2F)c(-c2ccnc(N)n2)s1`, the viability, T/C (compound 0.0316 µM) is reported as 116% and 108%, the viability, T/C (compound 0.1 µM) is reported as 110% and 108% and the viability, T/C (compound 0.316 µM) is reported as 113% and 103%. The viability, T/C (compound 1 µM) was 112% and 109%, the viability, T/C (compound 3.16 µM) was 109% and 116% and the viability, T/C (compound 10 µM) was 104% and 107%. For the same molecule, the IC50 (curve of compound) was > 10000 nM.
For `CC(C)CC(NC(=O)C(Cc1ccccc1)NC(=O)c1cnccn1)B(O)O` (stereo not drawn), the viability, T/C (compound 31.6 pM) was 106% and 127%, the viability, T/C (compound 0.0001 µM) was 109% and 112% and the viability, T/C (compound 0.000316 µM) was 97.4% and 97.8%. The viability, T/C (compound 0.001 µM) was 87.7% and 98.7%, the viability, T/C (compound 0.00316 µM) was 90.2% and 85.5% and the viability, T/C (compound 0.01 µM) was 70.7% and 80.7%. For the same molecule, the IC50 (curve of compound) was > 10 nM.
With `CC(C)CC(NC(=O)CNC(=O)c1cc(Cl)ccc1Cl)B1OC(=O)CC(CC(=O)O)(C(=O)O)O1` (stereo not drawn) the viability, T/C (compound 0.000316 µM) was 109% and 95.1%, the viability, T/C (compound 0.001 µM) was 108% and 96.2% and the viability, T/C (compound 0.00316 µM) was 122% and 97.5%. The viability, T/C (compound 0.01 µM) was 100% and 95.3%, the viability, T/C (compound 0.0316 µM) was 82.2% and 73.6% and the viability, T/C (compound 0.1 µM) was 81.4% and 74.8%. For the same molecule, the IC50 (curve of compound) was > 100 nM.
`CC(C)NCC(C(=O)N1CCN(c2ncnc3c2C(C)CC3O)CC1)c1ccc(Cl)cc1` (stereo not drawn) was tested, and the viability, T/C (compound 0.3 µM) was 94.2% [middle of 10 runs], the viability, T/C (compound 3 µM) was 86.9% [middle of 10 runs] and the IC50 (compound alone, run of 02/28/2020) was > 30000 nM.
For `CC(C)n1nc(-c2ccc3oc(N)nc3c2)c2c(N)ncnc21`, the viability, T/C (compound 0.000316 µM) was 115% and 102%, the viability, T/C (compound 0.001 µM) was 103% and the viability, T/C (compound 0.00316 µM) was 93.7% and 84.9%. The viability, T/C (compound 0.01 µM) was 75.8% and 92.2%, the viability, T/C (compound 0.0316 µM) was 83.8% and 77.3% and the viability, T/C (compound 0.1 µM) was 82.8% and 76.9%. For the same molecule, the IC50 (curve of compound) was > 100 nM.
`CCCS(=O)(=O)Nc1ccc(F)c(C(=O)c2c[nH]c3ncc(-c4ccc(Cl)cc4)cc23)c1F` was tested, and the viability, T/C (compound 0.316 µM) was 108% and 97.6%, the viability, T/C (compound 1 µM) was 107% and 112% and the viability, T/C (compound 3.16 µM) was 109% and 126%. The viability, T/C (compound 10 µM) was 95.6% and 103%, the viability, T/C (compound 31.6 µM) was 122% and 118% and the viability, T/C (compound 100 µM) was 122% and 124%. The IC50 (curve of compound) was > 100000 nM.
In the case of `COC1CC2CCC(C)C(O)(O2)C(=O)C(=O)N2CCCCC2C(=O)OC(C(C)CC2CCC(OCCO)C(OC)C2)CC(=O)C(C)C=C(C)C(O)C(OC)C(=O)C(C)CC(C)C=CC=CC=C1C` (stereo not drawn), the viability, T/C (compound 0.000316 µM) is reported as 101% and 107%, the viability, T/C (compound 0.001 µM) is reported as 91% and 91.9% and the viability, T/C (compound 0.00316 µM) is reported as 87.1% and 85.7%. The viability, T/C (compound 0.01 µM) was 83.7% and 89.1%, the viability, T/C (compound 0.0316 µM) was 85.6% and 91.5% and the viability, T/C (compound 0.1 µM) was 76.8% and 86%. For the same molecule, the IC50 (curve of compound) was > 100 nM.
In the case of `COc1c(OCCCN2CCOCC2)ccc2c3n(c(=NC(=O)c4cnc(N)nc4)nc12)CCN3`, the viability, T/C (compound 0.00316 µM) is reported as 93.7% and 101%, the viability, T/C (compound 0.01 µM) is reported as 88.3% and 90.3% and the viability, T/C (compound 0.0316 µM) is reported as 84.4% and 86.9%. The viability, T/C (compound 0.1 µM) was 80.3% and 85%, the viability, T/C (compound 0.316 µM) was 77.4% and 77.2% and the viability, T/C (compound 1 µM) was 68.1% and 72.1%. The IC50 (curve of compound) was > 1000 nM.
For `Cc1nc(NC(=O)N2CCCC2C(N)=O)sc1-c1ccnc(C(C)(C)C(F)(F)F)c1` (stereo not drawn), the viability, T/C (compound 0.0316 µM) was 96.2% and 102%, the viability, T/C (compound 0.1 µM) was 103% and 91.1% and the viability, T/C (compound 0.316 µM) was 87.7% and 90.1%. The viability, T/C (compound 1 µM) was 78.6% and 84.6%, the viability, T/C (compound 3.16 µM) was 81.1% and 78.6% and the viability, T/C (compound 10 µM) was 78.6% and 73.7%. For the same molecule, the IC50 (curve of compound) was > 10000 nM.
In the case of `Cn1cnc2c(F)c(Nc3ccc(Br)cc3Cl)c(C(=O)NOCCO)cc21`, the viability, T/C (compound 0.00949 µM) is reported as 101% and 106%, the viability, T/C (compound 0.03 µM) is reported as 99.1% and 108% and the viability, T/C (compound 0.0949 µM) is reported as 77.1% and 84%. For the same molecule, the viability, T/C (compound 0.3 µM) was 85.9% and 76%, the viability, T/C (compound 0.949 µM) was 64.1% and 78.2% and the viability, T/C (compound 3 µM) was 62.4% and 57.4%. The IC50 (curve of compound) was > 3000 nM.
With `COC1CC2CCC(C)C(O)(O2)C(=O)C(=O)N2CCCCC2C(=O)OC(C(C)CC2CCC(OCCO)C(OC)C2)CC(=O)C(C)C=C(C)C(O)C(OC)C(=O)C(C)CC(C)C=CC=CC=C1C` (stereo not drawn) + CC(C)NCC(C(=O)N1CCN(c2ncnc3c2C(C)CC3O)CC1)c1ccc(Cl)cc1 the IC50 (curve of first compound, second compound 0.3 µM) was > 100 nM, the IC50 (curve of first compound, second compound 0.949 µM) was > 100 nM and the IC50 (curve of first compound, second compound 3 µM) was > 100 nM. For the same molecule, the IC50 (curve of first compound, second compound 9.49 µM) was > 100 nM, the IC50 (curve of first compound, second compound 30 µM) was > 100 nM and the viability, T/C (second compound 0.3 µM, first compound 0.000316 µM) was 91.7%. For the same molecule, the viability, T/C (second compound 0.3 µM, first compound 0.001 µM) was 86.2%, the viability, T/C (second compound 0.3 µM, first compound 0.00316 µM) was 90.4% and the viability, T/C (second compound 0.3 µM, first compound 0.01 µM) was 74.8%. The viability, T/C (second compound 0.3 µM, first compound 0.0316 µM) was 86.5%, the viability, T/C (second compound 0.3 µM, first compound 0.1 µM) was 77.3% and the viability, T/C (second compound 0.949 µM, first compound 0.000316 µM) was 85.5%. For the same molecule, the viability, T/C (second compound 0.949 µM, first compound 0.001 µM) was 90.9%, the viability, T/C (second compound 0.949 µM, first compound 0.00316 µM) was 83.2% and the viability, T/C (second compound 0.949 µM, first compound 0.01 µM) was 76.4%. For the same molecule, the viability, T/C (second compound 0.949 µM, first compound 0.0316 µM) was 78.8%, the viability, T/C (second compound 0.949 µM, first compound 0.1 µM) was 80.7% and the viability, T/C (second compound 3 µM, first compound 0.000316 µM) was 86%. For the same molecule, the viability, T/C (second compound 3 µM, first compound 0.001 µM) was 91.3%, the viability, T/C (second compound 3 µM, first compound 0.00316 µM) was 81.4% and the viability, T/C (second compound 3 µM, first compound 0.01 µM) was 80.3%. For the same molecule, the viability, T/C (second compound 3 µM, first compound 0.0316 µM) was 78.2%, the viability, T/C (second compound 3 µM, first compound 0.1 µM) was 78.3% and the viability, T/C (second compound 9.49 µM, first compound 0.000316 µM) was 84.8%. The viability, T/C (second compound 9.49 µM, first compound 0.001 µM) was 76.7%, the viability, T/C (second compound 9.49 µM, first compound 0.00316 µM) was 81.5% and the viability, T/C (second compound 9.49 µM, first compound 0.01 µM) was 76.6%. The viability, T/C (second compound 9.49 µM, first compound 0.0316 µM) was 80%, the viability, T/C (second compound 9.49 µM, first compound 0.1 µM) was 78.6% and the viability, T/C (second compound 30 µM, first compound 0.000316 µM) was 85.8%. It also gave a viability, T/C (second compound 30 µM, first compound 0.001 µM) of 79.9%, a viability, T/C (second compound 30 µM, first compound 0.00316 µM) of 82.8% and a viability, T/C (second compound 30 µM, first compound 0.01 µM) of 78.8%. For the same molecule, the viability, T/C (second compound 30 µM, first compound 0.0316 µM) was 73.1% and the viability, T/C (second compound 30 µM, first compound 0.1 µM) was 80.8%.
